Data: patent US12187729B2, “Compounds having PDE9A inhibitory activity, and pharmaceutical uses thereof” (KOREA RESEARCH INSTITUTE OF CHEMICAL TECHNOLOGY, priority 2018, dated 2025)

What follows are molecules tested against PDE9A (Homo sapiens (Human), UniProt O76083) (assay: PDE9A inhibitory activity, fluorescence polarization assay (IMAP-FP screening express kit)). Settings: enzyme PDE9A 5 ng/ml, Fl-cGMP substrate 100 nM, room temperature 1 hour.
Sequence of PDE9A (O76083 whole entry): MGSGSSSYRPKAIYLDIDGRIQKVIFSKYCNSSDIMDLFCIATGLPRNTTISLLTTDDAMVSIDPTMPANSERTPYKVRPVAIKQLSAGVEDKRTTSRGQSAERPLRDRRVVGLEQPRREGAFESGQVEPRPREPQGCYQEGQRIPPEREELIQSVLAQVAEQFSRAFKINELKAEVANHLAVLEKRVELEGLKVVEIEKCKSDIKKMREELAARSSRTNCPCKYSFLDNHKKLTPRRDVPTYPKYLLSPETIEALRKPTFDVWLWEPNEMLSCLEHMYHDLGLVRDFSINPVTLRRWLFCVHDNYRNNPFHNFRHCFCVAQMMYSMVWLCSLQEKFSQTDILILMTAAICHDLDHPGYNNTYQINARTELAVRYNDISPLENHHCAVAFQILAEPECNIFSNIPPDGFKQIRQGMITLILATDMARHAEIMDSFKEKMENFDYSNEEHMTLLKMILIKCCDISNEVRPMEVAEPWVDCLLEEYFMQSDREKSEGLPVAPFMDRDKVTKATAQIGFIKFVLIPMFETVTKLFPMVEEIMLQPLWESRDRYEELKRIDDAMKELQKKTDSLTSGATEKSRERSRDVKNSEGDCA
Type: biochemical
Method: The inhibitory activity of the representative compounds according to the present invention against phosphodiesterase 9A was tested based on the polarization assay (IMAP-FP screening express kit) provided by MDS (MDS Analytical Technologies, Sunyvale, CA, USA). As a buffer solution, a reaction solution (a reaction solution containing 0.01% Tween 20 provided by MDS was diluted 5 times, then 5 mM DTT is added) and a polarization detection solution (binding solution A and B provided by MDS were mixed at a ratio of 3:1 and IMAP binding reagent 1/600 was added) were prepared. 100 μM of the substrate (Fl-cGMP substrate; MDS) and 3.6 μg/ml of the enzyme PDE9A (ab54113; abeam) were prepared. 3.6 μg/ml PDE9A and 100 μM substrate were diluted to 20 ng/ml (final reaction concentration: 5 ng/ml) and 400 nM (final reaction concentration: 100 nM), respectively. The buffer solution used for all dilution and preparation processes was 1× reaction solution with 1 mM DTT added, and the polarization detection solution was used to induce polarization at the end.
The prepared samples were dispensed on black microplates (Multiwell 384 well plates, #3573, Corning Life Sciences, Lowell, MA, USA) using a 16-channel pipette (multi 16-channel, Finnpipette, Thermo Scientific, Essex, UK). The total reaction volume per well is 20 μl. At this time, 10 μl of 2% DMSO, 5 μl of substrate solution, and 5 μl of reaction solution were used as a negative control, and 10 μl of 2% DMSO, 5 μl of substrate solution, and 5 μl of PDE9A solution were used as a positive control. As the experimental group, 10 μl of the compound prepared in Example, 5 μl of the substrate solution, and 5 μl of the PDE9A solution were used. After pretreatment between the compound and the enzyme was performed for about […] before the enzyme-substrate reaction, 5 μl of cGMP was added to induce the enzyme reaction. During the reaction, each compound, enzyme, and substrate occupied 50%, 25%, and 25% of the total volume, respectively, and they were prepared at high concentrations of 2, 4, and 4 times, respectively, immediately before addition. After the enzymatic reaction, it was shaken lightly for 1 minute and the enzyme reaction was induced at room temperature for 1 hour. Then, 60 μl of a polarization detection solution prepared in advance was added to induce polarization.
Nanoparticles composed of trivalent metal ions are mixed in the fluorescence detection solution, which combines with phosphoric acid expose by enzymatic reaction to increase the molecular weight and induce polarization. After leaving for 2 hours at room temperature, the polarization (Fluorescence Polarization, FP) value was measured using a multilabel counter (Envision, PerkinElmer, Turku, Finland) (emission wavelength: P-535 nm, S-535 nm, excitation wavelength: 480 nm), and the result was expressed as an IC50 value, which is the concentration of the compound that inhibited PDE9A by 50% in vitro (Table 2).
With `O=C(CSc1nc2c(cnn2C2CCC(F)(F)CC2)c(=O)[nH]1)Nc1nnc(Cl)s1` [Example 1, 2-((1-(4,4-difluorocyclohexyl)-4-oxo-4,5-dihydro-1H-pyrazolo[3,4-d]pyrimidin-6-yl)thio)-N-(5-chloro-1,3,4-thiadiazol-2-yl)acetamide] the IC50 was 0.4 nM.
With `CCSc1nnc(NC(=O)CSc2nc3c(cnn3-c3ccccc3)c(=O)[nH]2)s1` [Example 2, N-(5-(ethylthio)-1,3,4-thiadiazol-2-yl)-2-((4-oxo-1-phenyl-4,5-dihydro-1H-pyrazolo[3,4-d]pyrimidin-6-yl)thio)acetamide] the IC50 was 10 nM.
Work on `Cc1nnc(NC(=O)CSc2nc3c(cnn3-c3ccccc3)c(=O)[nH]2)s1` [Example 3, N-(5-methyl-1,3,4-thiadiazol-2-yl)-2-((4-oxo-1-phenyl-4,5-dihydro-1H-pyrazolo[3,4-d]pyrimidin-6-yl)thio)acetamide] yielded an IC50 of 340 nM.
`O=C(CSc1nc2c(cnn2-c2ccccc2)c(=O)[nH]1)Nc1nncs1` [Example 4, 2-((4-oxo-1-phenyl-4,5-dihydro-1H-pyrazolo[3,4-d]pyrimidin-6-yl)thio)-N-(1,3,4-thiadiazol-2-yl)acetamide] was tested, and the IC50 was 230 nM.
Work on `CCc1nnc(NC(=O)CSc2nc3c(cnn3-c3ccccc3)c(=O)[nH]2)s1` [Example 5, N-(5-ethyl-1,3,4-thiadiazol-2-yl)-2-((4-oxo-1-phenyl-4,5-dihydro-1H-pyrazolo[3,4-d]pyrimidin-6-yl)thio)acetamide] yielded an IC50 of 180 nM.
For `O=C(CSc1nc2c(cnn2-c2ccccc2)c(=O)[nH]1)Nc1nnc(SCc2ccccc2)s1` [Example 6], the IC50 was 14 nM.
Work on `O=C(CSc1nc2c(cnn2-c2ccccc2)c(=O)[nH]1)Nc1nnc(Br)s1` [Example 7, N-(5-bromo-1,3,4-thiadiazol-2-yl)-2-((4-oxo-1-phenyl-4,5-dihydro-1H-pyrazolo[3,4-d]pyrimidin-6-yl)thio)acetamide] yielded an IC50 of 12 nM.
`O=C(CSc1nc2c(cnn2-c2ccccc2)c(=O)[nH]1)Nc1nnc(SCc2ccc(Cl)cc2)s1` [Example 8] showed an IC50 of 19 nM.
For `Cc1ccc(CSc2nnc(NC(=O)CSc3nc4c(cnn4-c4ccccc4)c(=O)[nH]3)s2)cc1` [Example 9], the IC50 was 15 nM.
`Cc1nnc(NC(=O)C(C)Sc2nc3c(cnn3-c3ccccc3)c(=O)[nH]2)s1` (stereo not shown) [Example 10, N-(5-methyl-1,3,4-thiadiazol-2-yl)-2-((4-oxo-1-phenyl-4,5-dihydro-1H-pyrazolo[3,4-d]pyrimidin-6-yl)thio)propanamide] was tested, and the IC50 was 150 nM.
Work on `CCSc1nnc(NC(=O)C(C)Sc2nc3c(cnn3-c3ccccc3)c(=O)[nH]2)s1` (stereo not shown) [Example 11, N-(5-(ethylthio)-1,3,4-thiadiazol-2-yl)-2-((4-oxo-1-phenyl-4,5-dihydro-1H-pyrazolo[3,4-d]pyrimidin-6-yl)thio)propanamide] yielded an IC50 of 10 nM.
`CC(Sc1nc2c(cnn2-c2ccccc2)c(=O)[nH]1)C(=O)Nc1nnc(Br)s1` (stereo not shown) [Example 12, N-(5-bromo-1,3,4-thiadiazol-2-yl)-2-((4-oxo-1-phenyl-4,5-dihydro-1H-pyrazolo[3,4-d]pyrimidin-6-yl)thio)propanamide] showed an IC50 of 7 nM.
With `CCSc1nnc(NC(=O)CSc2nc3c(cnn3-c3ccc(F)cc3)c(=O)[nH]2)s1` [Example 16, N-(5-(ethylthio)-1,3,4-thiadiazol-2-yl)-2-((1-(4-fluorophenyl)-4-oxo-4,5-dihydro-1H-pyrazolo[3,4-d]pyrimidin-6-yl)thio)acetamide] the IC50 was 27 nM.
`O=C(CSc1nc2c(cnn2-c2ccc(F)cc2)c(=O)[nH]1)Nc1nnc(Br)s1` [Example 17, N-(5-bromo-1,3,4-thiadiazol-2-yl)-2-((1-(4-fluorophenyl)-4-oxo-4,5-dihydro-1H-pyrazolo[3,4-d]pyrimidin-6-yl)thio)acetamide] gave an IC50 of 27 nM.
With `CCSc1nnc(N(C)C(=O)CSc2nc3c(cnn3-c3ccccc3)c(=O)[nH]2)s1` [Example 18, N-(5-(ethylthio)-1,3,4-thiadiazol-2-yl)-N-methyl-2-((4-oxo-1-phenyl-4,5-dihydro-1H-pyrazolo[3,4-d]pyrimidin-6-yl)thio)acetamide] the IC50 was 470 nM.
In the case of `CCSc1nnc(NC(=O)CSc2nc3c(cnn3C3CCC(F)(F)CC3)c(=O)[nH]2)s1` [Example 19, 2-((1-(4,4-difluorocyclohexyl)-4-oxo-4,5-dihydro-1H-pyrazolo[3,4-d]pyrimidine-6-yl)thio)-N-(5-(ethylthio)-1,3,4-thiadiazol-2-yl)acetamide], the IC50 is reported as 0.6 nM.
`Cc1ccc(-c2nnc(NC(=O)C(C)Sc3nc4c(cnn4-c4ccccc4)c(=O)[nH]3)s2)cc1` (stereo not shown) [Example 20, 2-((4-oxo-1-phenyl-4,5-dihydro-1H-pyrazolo[3,4-d]pyrimidin-6-yl)thio)-N-(5-(p-tolyl)-1,3,4-thiadiazol-2-yl)propanamide] showed an IC50 of 19 nM.
For `O=C(CSc1nc2c(cnn2C2CCC(F)(F)CC2)c(=O)[nH]1)Nc1nnc(Br)s1` [Example 21, 2-((1-(4,4-difluorocyclohexyl)-4-oxo-4,5-dihydro-1H-pyrazolo[3,4-d]pyrimidin-6-yl)thio)-N-(5-bromo-1,3,4-thiadiazol-2-yl)acetamide], the IC50 was 0.4 nM.
Molecule `CC(C)(C)c1nnc(NC(=O)CSc2nc3c(cnn3-c3ccccc3)c(=O)[nH]2)s1` [Example 22, N-(5-(tertiary-butyl)-1,3,4-thiadiazol-2-yl)-2-((4-oxo-1-phenyl-4,5-dihydro-1H-pyrazolo[3,4-d]pyrimidin-6-yl)thio)acetamide] has an IC50 of 100 nM.
`O=C(CSc1nc2c(cnn2-c2ccccc2)c(=O)[nH]1)Nc1nnc(-c2ccc(F)cc2)s1` [Example 23, N-(5-(4-fluorophenyl)-1,3,4-thiadiazol-2-yl)-2-((4-oxo-1-phenyl-4,5-dihydro-1H-pyrazolo[3,4-d]pyrimidin-6-yl)thio)acetamide] showed an IC50 of 10 nM.
Work on `Cc1ccc(-c2nnc(NC(=O)CSc3nc4c(cnn4-c4ccccc4)c(=O)[nH]3)s2)cc1` [Example 24, 2-((4-oxo-1-phenyl-4,5-dihydro-1H-pyrazolo[3,4-d]pyrimidin-6-yl)thio)-N-(5-(p-tolyl)-1,3,4-thiadiazol-2-yl)acetamide] yielded an IC50 of 41 nM.
Molecule `O=C(CSc1nc2c(cnn2-c2ccccc2)c(=O)[nH]1)Nc1nnc(-c2ccccc2)s1` [Example 25, N-(5-phenyl-1,3,4-thiadiazol-2-yl)-2-((4-oxo-1-phenyl-4,5-dihydro-1H-pyrazolo[3,4-d]pyrimidin-6-yl)thio)acetamide] has an IC50 of 12 nM.
Work on `CCSc1nnc(NC(=O)C(Sc2nc3c(cnn3-c3ccccc3)c(=O)[nH]2)c2ccccc2)s1` (stereo not shown) [Example 26, N-(5-(ethylthio)-1,3,4-thiadiazol-2-yl)-2-((4-oxo-1-phenyl-4,5-dihydro-1H-pyrazolo[3,4-d]pyrimidin-6-yl)thio)-2-phenylacetamide] yielded an IC50 of 9 nM.
In the case of `CCSc1nnc(NC(=O)CSc2nc3c(cnn3C3CCOCC3)c(=O)[nH]2)s1` [Example 27, N-(5-(ethylthio)-1,3,4-thiadiazol-2-yl)-2-((4-oxo-1-(tetrahydro-2H-pyran-4-yl)-4,5-dihydro-1H-pyrazolo[3,4-d]pyrimidin-6-yl)thio)acetamide], the IC50 is reported as 0.5 nM.
`CCSc1nnc(NC(=O)C(C)Sc2nc3c(cnn3C3CCC(F)(F)CC3)c(=O)[nH]2)s1` (stereo not shown) [Example 28, 2-((1-(4,4-difluorocyclohexyl)-4-oxo-4,5-dihydro-1H-pyrazolo[3,4-d]pyrimidin-6-yl)thio)-N-(5-(ethylthio)-1,3,4-thiadiazol-2-yl)propanamide] was tested, and the IC50 was 0.1 nM.
`CCSc1nnc(NC(=O)CSc2nc3c(cnn3C3CCSCC3)c(=O)[nH]2)s1` [Example 29, N-(5-(ethylthio)-1,3,4-thiadiazol-2-yl)-2-((4-oxo-1-(tetrahydro-2H-thiopyran-4-yl)-4,5-dihydro-1H-pyrazolo[3,4-d]pyrimidin-6-yl)thio)acetamide] showed an IC50 of 0.3 nM.
Molecule `O=C(CSc1nc2c(cnn2-c2ccccc2)c(=O)[nH]1)Nc1nnc(Cl)s1` [Example 30, N-(5-chloro-1,3,4-thiadiazol-2-yl)-2-((4-oxo-1-phenyl-4,5-dihydro-1H-pyrazolo[3,4-d]pyrimidin-6-yl)thio)acetamide] has an IC50 of 18 nM.
Molecule `CC(Sc1nc2c(cnn2C2CCC(F)(F)CC2)c(=O)[nH]1)C(=O)Nc1nnc(Br)s1` (stereo not shown) [Example 31, 2-((1-(4,4-difluorocyclohexyl)-4-oxo-4,5-dihydro-1H-pyrazolo[3,4-d]pyrimidin-6-yl)thio)-N-(5-bromo-1,3,4-thiadiazol-2-yl)propanamide] has an IC50 of 0.1 nM.
